Columns and labels:
barnyard grass [1] = assay: Test Example 5: herbicidal effect by foliage application, plastic box (Table 20, symbol H); format: in vivo, barnyard grass (Echinochloa crus-galli); conditions: foliage application, three weeks after application
How it was run: (§1)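 Plants sown in sterilized diluvial soil and grown 14 days in a greenhouse at 25° C to 30° C, then sprayed on the foliage with the compound's emulsion diluted in water to a predetermined herbicide amount. Injury to weeds and crops scored three weeks after application on a visual rating scale.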

wild oat = assay: Test Example 5: herbicidal effect by foliage application, plastic box (Table 20, symbol I); format: in vivo, wild oat (Avena fatua); conditions: foliage application, three weeks after application
How it was run: as §1

Chinese sprangletop = assay: Test Example 3: herbicidal effect by foliage application, Wagner pot (Table 18, symbol D); format: in vivo, chinese sprangletop (Leptochloa chinensis)
How it was run: (§2)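 Plants were sown in alluvial soil held under 0.1–0.5 cm standing water and grown 14 days in a greenhouse at 25–30 °C. An emulsifiable formulation, water-diluted to the set dose, was then sprayed onto the foliage, and effects were scored three weeks later using previously defined criteria.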

blackgrass = assay: Test Example 5: herbicidal effect by foliage application, plastic box (Table 20, symbol J); format: in vivo, blackgrass (Alopecurus myosuroides); conditions: foliage application, three weeks after application
Description: (§3) [Test Example 5] Herbicidal Effect Test by Foliage Application
(§4) Sterilized diluvial soil was placed in a plastic box having a length of 21 cm, a width of 13 cm, and a depth of 7 cm. The seeds of each of southern crabgrass, green foxtail, barnyard grass, wild oat, blackgrass, Italian ryegrass, windgrass, velvetleaf, redroot pigweed, lambsquarters, chickweed, false cleavers, persian speedwell, corn, soybean, rice, wheat, beet, and rapeseed were sowed in a spot-like manner and covered with the soil having a thickness of about 1.5 cm. Thereafter, the plants were grown in a greenhouse at 25° C. to 30° C. After 14-day growth of the plants, the emulsion agent of the compound of the present invention prepared according to Formulation Example 2 was diluted with water so as to achieve a predetermined herbicide amount, and the diluted emulsion agent was uniformly applied to a foliage part with a small-sized spray. Three weeks after the herbicide application, the effect of the herbicide on each plant was evaluated according to the criteria of Test Example 1.

rice flat sedge = assay: Test Example 3: herbicidal effect by foliage application, Wagner pot (Table 18, symbol E); format: in vivo, rice flat sedge (Cyperus iria)
How it was run: as §2

persian speedwell = assay: Test Example 5: herbicidal effect by foliage application, plastic box (Table 20, symbol R); format: in vivo, Persian speedwell (Veronica persica); conditions: foliage application, three weeks after application
Description: as §3, §4

Italian ryegrass = assay: Test Example 5: herbicidal effect by foliage application, plastic box (Table 20, symbol K); format: in vivo, Italian ryegrass (Lolium multiflorum); conditions: foliage application, three weeks after application
How it was run: as §1

green foxtail = assay: Test Example 5: herbicidal effect by foliage application, plastic box (Table 20, symbol G); format: in vivo, green foxtail (Setaria viridis); conditions: foliage application, three weeks after application
Description: as §3, §4

lambsquarters = assay: Test Example 5: herbicidal effect by foliage application, plastic box (Table 20, symbol O); format: in vivo, lambsquarters (Chenopodium album); conditions: foliage application, three weeks after application
Description: as §3, §4

barnyard grass [2] = assay: Test Example 3: herbicidal effect by foliage application, Wagner pot (Table 18, symbol H); format: in vivo, barnyard grass (Echinochloa crus-galli)
Experimental: [Test Example 3] Herbicidal Effect Test by Foliage Application After alluvial soil was placed into 1/10000 are of Wagner pot, water was poured and mixed to form a submerged condition having a water depth of 0.1 cm to 0.5 cm. Seeds of barnyard grass, Chinese sprangletop, rice flat sedge, and rice were sowed and the pot was placed in a greenhouse at 25° C. to 30° C. for growth of the plants. After 14-day growth of the plants, the emulsion agent of the compound of the present invention prepared according to Formulation Example 2 was diluted with water so as to achieve a predetermined herbicide amount, and the diluted emulsion agent was uniformly applied to a foliage part with a small-sized spray. Three weeks after the herbicide application, the effect of the herbicide on each plant was evaluated according to the criteria of Test Example 1.

windgrass = assay: Test Example 5: herbicidal effect by foliage application, plastic box (Table 20, symbol L); format: in vivo, windgrass (Apera spica-venti); conditions: foliage application, three weeks after application
Description: as §3, §4

southern crabgrass = assay: Test Example 5: herbicidal effect by foliage application, plastic box (Table 20, symbol F); format: in vivo, southern crabgrass (Digitaria ciliaris); conditions: foliage application, three weeks after application
Description: as §3, §4

velvetleaf = assay: Test Example 5: herbicidal effect by foliage application, plastic box (Table 20, symbol M); format: in vivo, velvetleaf (Abutilon theophrasti); conditions: foliage application, three weeks after application
How it was run: as §1

Compound	herbicidal effect on barnyard grass (H) (barnyard grass [1]; 320 g/ha)	herbicidal effect on wild oat (I) (wild oat; 320 g/ha)	herbicidal effect on Chinese sprangletop (D) (Chinese sprangletop; 320 g/ha)	herbicidal effect on blackgrass (J) (blackgrass; 320 g/ha)	herbicidal effect on rice flat sedge (E) (rice flat sedge; 320 g/ha)	herbicidal effect on persian speedwell (R) (persian speedwell; 320 g/ha)	herbicidal effect on Italian ryegrass (K) (Italian ryegrass; 320 g/ha)	herbicidal effect on green foxtail (G) (green foxtail; 320 g/ha)	herbicidal effect on lambsquarters (O) (lambsquarters; 320 g/ha)	herbicidal effect on barnyard grass (H) (barnyard grass [2]; 320 g/ha)	herbicidal effect on windgrass (L) (windgrass; 320 g/ha)	herbicidal effect on southern crabgrass (F) (southern crabgrass; 320 g/ha)	herbicidal effect on velvetleaf (M) (velvetleaf; 320 g/ha)	further results
COc1cc2sc(-c3ccc(F)cc3)c(-c3c(O)c(C)nn(C)c3=O)c2cc1-c1ccc(F)cc1 [5-078]	–	–	–	–	–	–	–	–	–	–	–	–	–	herbicidal effect on barnyard grass (H) (barnyard grass [1]; 270 g/ha): 4 (Herbicidal rate of 70% or more and less than 90%); herbicidal effect on wild oat (I) (wild oat; 270 g/ha): 0 (Herbicidal rate of 5% or less (almost no effect)); herbicidal effect on Chinese sprangletop (D) (Chinese sprangletop; 270 g/ha): 4 (Herbicidal rate of 70% or more and less than 90%); herbicidal effect on blackgrass (J) (blackgrass; 270 g/ha): 0 (Herbicidal rate of 5% or less (almost no effect)); herbicidal effect on rice flat sedge (E) (rice flat sedge; 270 g/ha): 3 (Herbicidal rate of 40% or more and less than 70%); herbicidal effect on persian speedwell (R) (persian speedwell; 270 g/ha): 0 (Herbicidal rate of 5% or less (almost no effect)); herbicidal effect on Italian ryegrass (K) (Italian ryegrass; 270 g/ha): 0 (Herbicidal rate of 5% or less (almost no effect)); herbicidal effect on green foxtail (G) (green foxtail; 270 g/ha): 5 (Herbicidal rate of 90% or more (almost completely withered)); herbicidal effect on lambsquarters (O) (lambsquarters; 270 g/ha): 1 (Herbicidal rate of 5% or more and less than 20%); herbicidal effect on barnyard grass (H) (barnyard grass [2]; 270 g/ha): 4 (Herbicidal rate of 70% or more and less than 90%); herbicidal effect on windgrass (L) (windgrass; 270 g/ha): 0 (Herbicidal rate of 5% or less (almost no effect)); herbicidal effect on southern crabgrass (F) (southern crabgrass; 270 g/ha): 4 (Herbicidal rate of 70% or more and less than 90%); herbicidal effect on velvetleaf (M) (velvetleaf; 270 g/ha): 3 (Herbicidal rate of 40% or more and less than 70%)
Cc1nn(C)c(=O)c(-c2c(-c3ccc(OC(F)F)cc3)sc3cc(Cl)c(Cl)cc23)c1O [5-086]	0 (Herbicidal rate of 5% or less (almost no effect))	0 (Herbicidal rate of 5% or less (almost no effect))	0 (Herbicidal rate of 5% or less (almost no effect))	5 (Herbicidal rate of 90% or more (almost completely withered))	0 (Herbicidal rate of 5% or less (almost no effect))	5 (Herbicidal rate of 90% or more (almost completely withered))	0 (Herbicidal rate of 5% or less (almost no effect))	0 (Herbicidal rate of 5% or less (almost no effect))	5 (Herbicidal rate of 90% or more (almost completely withered))	3 (Herbicidal rate of 40% or more and less than 70%)	5 (Herbicidal rate of 90% or more (almost completely withered))	0 (Herbicidal rate of 5% or less (almost no effect))	3 (Herbicidal rate of 40% or more and less than 70%)	–
COc1ccccc1-c1sc2c(C)cc(C)cc2c1-c1c(O)c(C)nn(C)c1=O [6-002]	0 (Herbicidal rate of 5% or less (almost no effect))	0 (Herbicidal rate of 5% or less (almost no effect))	5 (Herbicidal rate of 90% or more (almost completely withered))	4 (Herbicidal rate of 70% or more and less than 90%)	3 (Herbicidal rate of 40% or more and less than 70%)	4 (Herbicidal rate of 70% or more and less than 90%)	4 (Herbicidal rate of 70% or more and less than 90%)	3 (Herbicidal rate of 40% or more and less than 70%)	2 (Herbicidal rate of 20% or more and less than 40%)	4 (Herbicidal rate of 70% or more and less than 90%)	1 (Herbicidal rate of 5% or more and less than 20%)	0 (Herbicidal rate of 5% or less (almost no effect))	1 (Herbicidal rate of 5% or more and less than 20%)	–

From patent publication US20230085307A1, “PYRIDAZINONE COMPOUND AND HERBICIDE” (NISSAN CHEMICAL CORPORATION, priority 2019, published 2023)
